Results published in patent US6821508B2, “Composition and method for topical nail treatment” (Rutgers, the State University, priority 2001, dated 2004).
In brackets after ≈: the same amount, converted by molar mass. Like-named read-outs stand apart in the source and are kept apart here.

How the values were obtained:
[1] = Enhancer screening: tritiated water permeation through nails in Franz-type diffusion cells (toenails); settings: Table 2; pyrithione gels, each relative to its own control
Method: Frozen human toenails and fingernails were obtained from tissue banks based on a protocol for size, patient history, etc. The nails were thawed at room temperature for 1 hour, and the adhering skin and tissue was removed with a pair of scissors and a scalpel. The nails were cleaned by rinsing them in a mild detergent solution (1% solution of a standard liquid soap containing sodium and potassium dodecyl benzene sulfonate and ammonium laureth sulfate), followed by two rinses in deionized water (DI water). The thickness of the nails was measured with a micrometer, and the nails were immersed in 10 mL of DI water for 24 hours just prior to use to allow complete hydration and bring all the nails to the same condition for valid comparisons (Kobayashi, et al. (1998) Chem. Pharm. Bull. 46(11):1797-1802; Walters, et al. (1981) J Invest Dermatol 76:76-79; Mertin and Lippold (1997) J Pharm Pharmacol 49:30-34).
Franz-type diffusion cells (Crown Glass Co., Somerville, N.J.), specially designed to hold the human nail were used (Malhotra and Zatz (2000) J Cosmet Sci 51:367-377). The cleaned, trimmed nails were clamped into the diffusion cells. […]
All gels were prepared using the same general procedure. […] The apparent pH of the gels was measured. Prior to use, three 10 μL aliquots of the gel were analyzed by Liquid Scintillation Counting (LSC) to validate uniformity of spiking. […]

[2] = 25° C.; Hoogerheide and Wyka (1982); cited from earlier work
[3] = Solubility of clotrimazole in PEG-20-oleyl ether receptor fluid (HPLC); format: physicochemical; settings: aqueous PEG-20-oleyl ether surfactant solution, 37 °C, aqueous with cosolvent or surfactant or cyclodextrin, thermodynamic from solid, read-out: Solubility of clotrimazole (Mean ± SEM, n = 3)
Method: Aqueous solutions of PEG-20-oleyl ether in concentrations of 0.5%, 1%, 2%, and 5% were prepared. Excess clotrimazole was added to vials containing 10 mL of surfactant solution. For each surfactant concentration, the solubility determination was done in triplicate. The vials were agitated in a mechanical shaker bath (Precision Scientific, Chicago, Ill.) maintained at 37° C. for 24 hours. The vials were then centrifuged (Fisher Scientific, Springfield, N.J.) at 4600 rpm for 30 minutes at 25° C. The supernatant was analyzed for drug concentration by High Performance Liquid Chromatography (HPLC).
The HPLC conditions were adapted from well known methods, for example Hoogerheide, et al. ((1981) J Assoc Off Anal Chem 64:864-869) and Rifai, et al. ((1995) Clin Chem 41:387-391). The HPLC analysis was performed using a Waters 600E System Controller Pump, Waters 717 Autoinjector, Waters 486 Tunable Absorbance Detector, and Waters 700 Data Module Integrator. A reverse-phase C-18 column (Waters Novapak, 3.9×150 mm, 4μ) was used. The mobile phase consisted of a mixture of 0.025M dibasic potassium phosphate (pH adjusted to approximately 6.3 with o-phosphoric acid) and HPLC grade methanol in the ratio 1:3. A flow rate of 1 mL/minute was maintained and the detector wavelength was set at 254 nm.
Standard solutions of clotrimazole in mobile phase were prepared in the concentration range of 5-200 μg/mL. The injection volume of standard and sample solutions was 20 μL.
The chromatography conditions yielded a linear standard curve (R^2=0.9995). From the standard curve, the solubility of clotrimazole in different concentrations of PEG-20-oleyl ether was quantitatively determined.

solubility at 24 h ([3]; 0.5% PEG-20-oleyl ether in water) [µg/mL] | solubility at 24 h ([3]; 1.0% PEG-20-oleyl ether in water) [µg/mL] | solubility at 24 h ([3]; 2.0% PEG-20-oleyl ether in water) [µg/mL] | solubility at 24 h ([3]; 5.0% PEG-20-oleyl ether in water) [µg/mL] | Molecule | EFwater [1] | solubility in alcohol [2] [µg/mL] | solubility in water [2] [µg/mL]
 |  |  |  | [Na+].[O-][n+]1ccccc1[S-] [NaPTO, sodium pyrithione] | ~1 |  | 
75.2 (≈ 218 µM) | 191 (≈ 553 µM) | 499 (≈ 1450 µM) | 1350 (≈ 3930 µM) | Clc1ccccc1C(c1ccccc1)(c1ccccc1)n1ccnc1 [clotrimazole] |  | 95000 (≈ 275000 µM) | < 10
 |  |  |  | zinc pyrithione [ZnPTO] | 1.13 |  | 
